From ChEMBL document CHEMBL1938341, “Alkylated flavanones from the bark of Cryptocarya chartacea as dengue virus NS5 polymerase inhibitors” (J Nat Prod, 2011) come the findings set out here.

Each structure is given as a SMILES string. pIC50: −log10 of the molar value.

Series [1] in a line: Growth inhibition of human KB cells at 10 ug/ml. Type of series: cell-based. The note with it: read-out: GI.
A short description of series [2]: Inhibition of Dengue virus 2 NS5 polymerase-mediated RNA synthesis expressed in Escherichia coli Rosetta pLac1 cells assessed as [3H]GTP incorporation after 5 mins by scintillation counting. On the set-up: species or system dengue virus type 2. The conditions noted are these: for pIC50: read-out: IC50.
A short description of series [3]: Inhibition of Bovine diarrhea virus NS5 polymerase-mediated RNA synthesis expressed in Escherichia coli Rosetta pLac1 cells assessed as [3H]GTP incorporation after 5 mins by scintillation counting. On the set-up: species or system Bovine viral diarrhea virus 1.
Series [4] concerns KB. The series is described as follows: Cytotoxicity against human KB cells. It is filed as cell-based.

Consider `O=C1C[C@@H](c2ccccc2)Oc2cc(O)cc(O)c21` [PINOCEMBRIN], for which, in series [1], the inhibition at 10 ug/ml came out at 0%. Also, the IC50 entry in series [2] is “Not Active”.
Broadly, the pIC50 is −log10 of the IC50, conventionally taken in molar units. As for `O=C(O)CCC/C=C/C(c1ccccc1)c1c(O)cc2c(c1O)C(=O)CC(c1ccccc1)O2` (racemic), the negative-log IC50 (pIC50) was less than 4.30 in series [3] and 4.14 in series [2]. Also, the inhibition at 10 ug/ml in series [1] turned out to be 0%.
Consider `CC(=O)O[C@@]12CO[C@@H]1C[C@H](O)[C@@]1(C)C(=O)[C@H](O)C3=C(C)[C@@H](OC(=O)[C@H](O)[C@@H](NC(=O)OC(C)(C)C)c4ccccc4)C[C@@](O)([C@@H](OC(=O)c4ccccc4)[C@H]21)C3(C)C` [DOCETAXEL], for which, in series [4], the negative logarithm of the IC50 (pIC50) is 7.82.
On to `O=C(O)CCC[C@@H](/C=C/c1ccccc1)c1c(O)cc2c(c1O)C(=O)C[C@H](c1ccccc1)O2`, for which the results for the negative logarithm of the IC50 (pIC50) in series [3] and in series [2] were less than 4.30 and 5.05, respectively. For the same molecule, the inhibition at 10 ug/ml in series [1] was found to be 11%.
The corresponding values for `O=C(O)CCCC(/C=C/c1ccccc1)c1c(O)c2c(c(C(/C=C/c3ccccc3)CCCC(=O)O)c1O)OC(c1ccccc1)CC2=O` (racemic) are less than 4.30, 5.62 and 0%.
Turning to `O=C(O)CCCC(/C=C/c1ccccc1)c1c(O)cc2c(c1O)C(=O)CC(c1ccccc1)O2` (racemic), the results for the pIC50 in series [3] and in series [2] were less than 4.30 and 4.83, respectively. In addition, the inhibition at 10 ug/ml in series [1] was found to be 3.2%.
The corresponding values for `O=C(O)CCC[C@H](/C=C/c1ccccc1)c1c(O)cc2c(c1O)C(=O)C[C@H](c1ccccc1)O2` are less than 4.30, 4.82 and 0%.
The corresponding values for `O=C(O)CCC[C@@H](/C=C/c1ccccc1)c1c(O)cc2c(c1O)C(=O)C[C@@H](c1ccccc1)O2` [CHARTACEONE A4] are less than 4.30, 5.13 and 6%.
Consider `O=C(O)CCC/C=C/C(c1ccccc1)c1c(O)c(C(/C=C/c2ccccc2)CCCC(=O)O)c(O)c2c1OC(c1ccccc1)CC2=O` (racemic), for which the pIC50 in series [3] is less than 4.30; in series [2] it was 5.54. Moreover, in series [1], the inhibition at 10 ug/ml was 0%.
On to `Nc1nc2c(ncn2[C@@H]2O[C@H](COP(=O)(O)OP(=O)(O)OP(=O)(O)O)C[C@H]2O)c(=O)[nH]1`, for which the figures for the negative logarithm of the IC50 (pIC50) in series [3] and in series [2] were greater than 6.00 and 7.70, respectively.
As for `O=C(O)CCC/C=C/C(c1ccccc1)c1c(O)c2c(c(C(/C=C/c3ccccc3)CCCC(=O)O)c1O)OC(c1ccccc1)CC2=O` (racemic), the pIC50 in series [3] was less than 4.30; in series [2], 5.74. For the same molecule, the inhibition at 10 ug/ml in series [1] stood at 0%.
Consider `O=C(O)CCC[C@H](/C=C/c1ccccc1)c1c(O)cc2c(c1O)C(=O)C[C@@H](c1ccccc1)O2` [CHARTACEONE A3], for which the pIC50 in series [3] was less than 4.30; in series [2] it was 4.57. Besides, the inhibition at 10 ug/ml in series [1] turned out to be 0%.
As for `O=C(O)CCC/C=C/C(c1ccccc1)c1c(O)c2c(c(C(/C=C/CCCC(=O)O)c3ccccc3)c1O)OC(c1ccccc1)CC2=O` (racemic), the figures for the negative logarithm of the IC50 (pIC50) in series [3] and in series [2] were less than 4.30 and 5.38, respectively. Further, the inhibition at 10 ug/ml in series [1] stood at 0%.
